PMC7156412, “Inhibition of the deubiquitinase USP10 induces degradation of SYK” (British Journal of Cancer, 2020)

Tests used:
SYK [1] = assay: Immunoblot of SYK protein levels in Ba/F3-FLT3-ITD cells; type: cell-based, murine; settings: 24 h of treatment
Protocol: (§1) Protein lysate preparation, immunoblotting and immunoprecipitation were carried out as previously described.[21]

SYK [2] = assay: Immunoblot of SYK protein levels in MV4-11 cells; type: cell-based; settings: 24 h of treatment
Protocol: as §1

SYK [3] = assay: Immunoblot of SYK protein levels in PBMCs from normal donors; type: cell-based; settings: 24 h of treatment
Protocol: as §1

FLT3 [4] = assay: Immunoblot of FLT3 protein levels in Ba/F3-FLT3-ITD cells; type: cell-based, murine; settings: for Induction of FLT3 degradation: Ba/F3-FLT3-ITD cells, 24 hr, 10-20 µM; for FLT3 protein levels: all treated oncogenic FLT3-expressing cells, 24 h
Protocol: as §1

Ba/F3-FLT3-ITD cells = tested on: Ba/F3-FLT3-ITD cells; set-up: method as in PMID 28967922; settings: cited from earlier work
USP10 = settings: cited from earlier work
USP7 = settings: cited from earlier work
[5] = tested on: FLT3-ITD-positive MOLM14 cells; set-up: method as in PMID 28967922; settings: cited from earlier work
SYK [6] = assay: Immunoblot of SYK in Ba/F3-FLT3-ITD+TKD point mutant cells; type: cell-based, murine; settings: Ba/F3-FLT3-ITD+TKD point mutant cells (A627T, F691L, G697R, F691I), 24 hr, 5-10 µM
Protocol: as §1

FLT3 [7] = assay: Immunoblot of FLT3 in Ba/F3-FLT3-ITD+TKD point mutant cells; type: cell-based, murine; settings: Ba/F3-FLT3-ITD+TKD point mutant cells (A627T, F691L, G697R, F691I), 24 hr, 5-10 µM
Protocol: as §1

SYK, sequence (P48025 whole entry): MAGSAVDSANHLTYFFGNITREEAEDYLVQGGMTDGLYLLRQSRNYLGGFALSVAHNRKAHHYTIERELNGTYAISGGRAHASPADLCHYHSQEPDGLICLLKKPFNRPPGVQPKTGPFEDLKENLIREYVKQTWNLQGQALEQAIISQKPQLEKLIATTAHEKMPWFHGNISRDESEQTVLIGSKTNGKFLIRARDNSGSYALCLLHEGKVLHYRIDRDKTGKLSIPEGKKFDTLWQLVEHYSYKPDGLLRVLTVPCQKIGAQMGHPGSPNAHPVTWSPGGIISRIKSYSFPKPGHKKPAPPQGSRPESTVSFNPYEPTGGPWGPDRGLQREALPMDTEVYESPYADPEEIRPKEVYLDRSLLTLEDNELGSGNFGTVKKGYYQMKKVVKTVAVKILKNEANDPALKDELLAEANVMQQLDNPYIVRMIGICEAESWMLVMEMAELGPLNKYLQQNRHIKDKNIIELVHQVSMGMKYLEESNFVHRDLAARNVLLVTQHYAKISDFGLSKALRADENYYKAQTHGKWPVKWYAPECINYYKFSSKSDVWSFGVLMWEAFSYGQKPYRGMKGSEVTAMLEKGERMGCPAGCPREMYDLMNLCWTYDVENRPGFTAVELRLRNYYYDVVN

Compound	Effect on SYK protein levels (SYK [1])	Effect on SYK protein levels (SYK [2])	Effect on SYK protein levels (SYK [3])	Induction of FLT3 degradation (FLT3 [4])	FLT3 protein levels (FLT3 [4])	Combination effect with crenolanib or midostaurin (Ba/F3-FLT3-ITD cells)	Inhibition of USP10 activity (USP10)	Inhibition of USP7 activity (USP7)	Combination effect with crenolanib or midostaurin [5]	USP10 inhibitory activity in biochemical assay (USP10; Ub-AMC as substrate, as previously determined)	Effect on SYK protein levels (SYK [6])	Effect on FLT3 protein levels (FLT3 [7])
HBX19818	downregulated	downregulated	loss of SYK protein	Induction of FLT3 degradation	lower	synergistic effects	inhibit the activity	inhibit the activity	synergistic effects			
CCCN(CCC)CCCNC(=O)c1ccc2c(Cl)c3c(nc2c1)CCCC3 [C598-0466]	strongly inducing degradation of SYK protein			Induction of FLT3 degradation						showing activity against USP10		
CC(=O)c1cc([N+](=O)[O-])c(Sc2ccc(F)cc2F)s1 [P22077]	downregulated	downregulated	loss of SYK protein	Induction of FLT3 degradation	lower		inhibit the activity	inhibit the activity			induces degradation of SYK and FLT3	induces degradation of SYK and FLT3
